Reference: article PMC6017654, “Ionic Liquid-Promoted Synthesis of Novel Chromone-Pyrimidine Coupled Derivatives, Antimicrobial Analysis, Enzyme Assay, Docking Study and Toxicity Study” (Molecules : A Journal of Synthetic Chemistry and Natural …, 2018)
pIC50: −log10 of the molar value. In brackets after ≈: the same amount, converted by molar mass. Like-named read-outs stand apart in the source and are kept apart here.

Experiments:
[1] = test system: Escherichia coli SM1411 (an acrAB deficient derivative of 1411); test: In vitro antibacterial activity (MIC100, two fold serial dilution, NCCLS); assay type: cell-based; conditions: 24 h, read-out: MIC100
Description: (§1) All the synthesized compounds 4(a–f) and 6(a–f) were screened for their in vitro antibacterial activity against Staphylococcus aureus (NCIM-2901), Escherichia coli 1411 (standard laboratory strains) and Escherichia coli SM1411 (an acrAB deficient derivative of 1411). Minimum inhibitory concentration (MIC100) values were determined using methods recommended by National Committee for Clinical Laboratory Standards (NCCLS). Dimethyl sulfoxide (DMSO) was used as solvent control.
(§2) All the synthesized compounds 4(a–f) and 6(a–f) were screened for their in vitro antibacterial activity against Staphylococcus aureus (NCIM-2901) and Escherichia coli 1411 (standard laboratory strains) and Escherichia coli SM1411 (an acrAB deficient derivative of 1411). Minimum inhibitory concentration (MIC100) values were determined using the method recommended by National Committee for Clinical Laboratory Standards (NCCLS). In vitro antibacterial activities of the synthesized compounds 4(a–f) and 6(a–f) were tested in Nutrient Broth (NB) for Bacteria by the two fold serial dilution method. Seeded broth (broth containing microbial spores) was prepared in NB from 24 h old bacterial cultures on nutrient agar (Hi-media) at 37 ± 1 °C. The bacterial suspension was adjusted with sterile saline to a concentration of […]. The synthesized compounds and standard drug D-cycloserine were prepared by two fold serial dilutions to obtain the required concentrations. The tubes were incubated in BOD incubators at 37 ± 1 °C for bacteria. The MICs were recorded by visual observations after 24 h (for bacteria) of incubation.

[2] = test system: Staphylococcus aureus (NCIM-2901); test: as above; assay type: cell-based; conditions: Staphylococcus aureus
Description: as §1, §2

[3] = test system: Escherichia coli 1411; test: as above; assay type: cell-based; conditions: read-out: MIC100
Description: as §1, §2

[4] = target: DdlB from E.coli (Escherichia coli, UniProt P07862); test: D-Alanine-D-alanine ligase (DdlB) enzyme inhibition, malachite green method; assay type: biochemical; conditions: 37 °C, 30 min incubation, 5% DMSO
Description: The key enzyme involved in the peptidoglycan biosynthesis is D-alanine-D-alanine ligase (Ddl), making it an important target for drug discovery. Inhibition of DdlB as an essential enzyme in either Gram-positive or Gram-negative organisms leads to the loss of cell shape and integrity followed by bacterial death. The synthesized derivatives 4(a–f) and 6(a–f) were tested for their inhibitory activity on DdlB from E.coli. The results are presented as IC50 values.
The D-Ala-adding activity of DdlB ligase was monitored by the detection of orthophosphate generated during the reaction based on the colorimetric malachite green method described by Walsh et al.. […] All the compounds were soluble in the assay mixture containing 5% DMSO. After 30 min of incubation, 100 µL Biomol reagent was added. After 5 min, absorbance was read at 650 nm. Residual activity was calculated with respect to a similar assay without inhibitor. To exclude possible non-specific (promiscuous) inhibitors, representative compounds 4(a–f) and 6(a–f) were also tested in the presence of Tween (0.003%), Triton X-114 (0.005%), and SDS (420 µM), as described by McGovern et al.. No significant differences were found when compared to measurements without detergents.

[5] = test system: Candida albicans; test: In vitro antifungal activity (MIC100, CLSI/NCCLS); assay type: cell-based; conditions: C. alb., average of three readings, read-out: MIC 100
Description: (§3) The newly synthesized derivatives 4(a–f) and 6(a–f) were screened for their in vitro antifungal activity against different yeast and filamentous fungal pathogens. Minimum inhibitory concentration (MIC100) values for in vitro antifungal activity were determined by the methods recommended by National Committee for Clinical Laboratory Standards (NCCLS). Miconazole was used as standard drug. Dimethyl sulfoxide (DMSO) was used as solvent control.
(§4) In vitro antifungal activity was determined as per CLSI (formerly, NCCLS) guidelines. […] The medium yeast nitrogen base was dissolved in phosphate buffer pH 7 and it was autoclaved at 110 °C for 10 min. With each set a growth control without the antifungal agent and solvent control DMSO were included. The fungal strains were freshly sub cultured on to Sabouraud dextrose agar (SDA) and incubated at 25 °C for 72 h. The fungal cells were suspended in sterile distilled water and diluted to get 10^5 cells/mL. Further, ten microlitres of the standardized suspension was inoculated onto the control plates and the media incorporated with the antifungal agents. The inoculated plates were incubated at 25 °C for 48 h. The readings were taken at the end of 48 h and 72 h. The MIC was the lowest concentration of drug preventing growth of macroscopically visible colonies on drug containing plates when there was visible growth on the drug free control plates.

[6] = test system: Aspergillus niger; test: In vitro antifungal activity (MIC100, CLSI/NCCLS); assay type: cell-based; conditions: A. nig., average of three readings, read-out: MIC 100
Description: as §3, §4

[7] = test system: A. flavus; test: In vitro antifungal activity (MIC100, CLSI/NCCLS); assay type: cell-based; conditions: Aspergillus flavus; A. fla.; average of three readings; read-out: MIC 100
Description: as §3, §4

[8] = test system: Fusarium oxysporum; test: In vitro antifungal activity (MIC100, CLSI/NCCLS); assay type: cell-based; conditions: F. oxy., average of three readings, read-out: MIC 100
Description: as §3, §4

[9] = test system: Cryptococcus neoformans; test: In vitro antifungal activity (MIC100, CLSI/NCCLS); assay type: cell-based; conditions: C. neo., average of three readings, read-out: MIC 100
Description: as §3, §4

[10] = test system: Candida glabrata; test: In vitro antifungal activity (MIC100, CLSI/NCCLS); assay type: cell-based; conditions: Nakaseomyces glabratus; C. glab.; average of three readings; read-out: MIC 100
Description: as §3, §4

[11] = test system: Aspergillus fumigates; test: In vitro antifungal activity (MIC100, CLSI/NCCLS); assay type: cell-based; conditions: A. fum., average of three readings, read-out: MIC 100
Description: as §3, §4

[12] = NCIM2901, 24 h, read-out: MIC100, S. aureus NCIM-2901, average of three readings

CCOC(=O)C1=C(C)NC(=O)NC1c1coc2ccccc2c1=O (stereo not shown) [Compound 4a, Ethyl 6-methyl-2-oxo-4-(4-oxo-4H-chromen-3-yl)-1,2,3,4-tetrahydropyrimidine-5-carboxylate]
MIC [1]: 40 µg/mL (≈ 122 µM) | MIC [2, 12]: 64 µg/mL (≈ 195 µM) | MIC ([3]; Escherichia coli, 1411, 24 h): 46 µg/mL (≈ 140 µM) | melting point: 270 to 272 °C | pIC50 [4]: 3.80 | MIC [5]: > 100 µg/mL | MIC [6]: 57 µg/mL (≈ 174 µM) | MIC [7]: 66 µg/mL (≈ 201 µM) | MIC [8]: 82 µg/mL (≈ 250 µM) | MIC [9]: 60 µg/mL (≈ 183 µM) | MIC [10]: > 100 µg/mL | MIC [11]: 65 µg/mL (≈ 198 µM)

CCOC(=O)C1=C(C)NC(=S)NC1c1coc2ccccc2c1=O (stereo not shown) [Compound 4b, Ethyl 6-methyl-4-(4-oxo-4H-chromen-3-yl)-2-thioxo-1,2,3,4-tetrahydropyrimidine-5-carboxylate]
MIC [1]: 50 µg/mL (≈ 145 µM) | MIC [2, 12]: 68 µg/mL (≈ 197 µM) | MIC ([3]; Escherichia coli, 1411, 24 h): 50 µg/mL (≈ 145 µM) | melting point: 210 to 212 °C | pIC50 [4]: 3.53 | MIC [5]: 64 µg/mL (≈ 186 µM) | MIC [6]: 52 µg/mL (≈ 151 µM) | MIC [7]: 66 µg/mL (≈ 192 µM) | MIC [8]: 58 µg/mL (≈ 168 µM) | MIC [9]: 55 µg/mL (≈ 160 µM) | MIC [10]: 66 µg/mL (≈ 192 µM) | MIC [11]: 60 µg/mL (≈ 174 µM)

CCOC(=O)C1=C(C)NC(=O)NC1c1coc2ccc(F)cc2c1=O (stereo not shown) [Compound 4c, Ethyl 4-(6-fluoro-4-oxo-4H-chromen-3-yl)-6-methyl-2-oxo-1,2,3,4-tetrahydropyrimidine-5-carboxylate]
MIC [1]: 34 µg/mL (≈ 98.2 µM) | MIC [2, 12]: 30 µg/mL (≈ 86.6 µM) | MIC ([3]; Escherichia coli, 1411, 24 h): 38 µg/mL (≈ 110 µM) | melting point: 200 to 202 °C | pIC50 [4]: 3.81 | MIC [5]: 52 µg/mL (≈ 150 µM) | MIC [6]: 44 µg/mL (≈ 127 µM) | MIC [7]: 58 µg/mL (≈ 167 µM) | MIC [8]: 58 µg/mL (≈ 167 µM) | MIC [9]: 46 µg/mL (≈ 133 µM) | MIC [10]: 58 µg/mL (≈ 167 µM) | MIC [11]: 62 µg/mL (≈ 179 µM)

CCOC(=O)C1=C(C)NC(=O)NC1c1coc2ccc(OC)cc2c1=O (stereo not shown) [Compound 4d, Ethyl 4-(6-methoxy-4-oxo-4H-chromen-3-yl)-6-methyl-2-oxo-1,2,3,4-tetrahydropyrimidine-5-carboxylate]
MIC [1]: 54 µg/mL (≈ 151 µM) | MIC [2, 12]: > 200 µg/mL | MIC ([3]; Escherichia coli, 1411, 24 h): 55 µg/mL (≈ 153 µM) | melting point: 230 to 232 °C | pIC50 [4]: 3.48 | MIC [5]: 34 µg/mL (≈ 94.9 µM) | MIC [6]: 20 µg/mL (≈ 55.8 µM) | MIC [7]: 20 µg/mL (≈ 55.8 µM) | MIC [8]: 36 µg/mL (≈ 100 µM) | MIC [9]: 24 µg/mL (≈ 67 µM) | MIC [10]: 38 µg/mL (≈ 106 µM) | MIC [11]: 36 µg/mL (≈ 100 µM)

CCOC(=O)C1=C(C)NC(=S)NC1c1coc2ccc(OC)cc2c1=O (stereo not shown) [Compound 4e, Ethyl 4-(6-methoxy-4-oxo-4H-chromen-3-yl)-6-methyl-2-thioxo-1,2,3,4-tetrahydropyrimidine-5-carboxylate]
MIC [1]: > 60 µg/mL | MIC [2, 12]: > 200 µg/mL | MIC ([3]; Escherichia coli, 1411, 24 h): 58 µg/mL (≈ 155 µM) | melting point: 222 to 224 °C | pIC50 [4]: 3.47 | MIC [5]: 30 µg/mL (≈ 80.1 µM) | MIC [6]: 18 µg/mL (≈ 48.1 µM) | MIC [7]: 18 µg/mL (≈ 48.1 µM) | MIC [8]: 30 µg/mL (≈ 80.1 µM) | MIC [9]: 20 µg/mL (≈ 53.4 µM) | MIC [10]: 32 µg/mL (≈ 85.5 µM) | MIC [11]: 34 µg/mL (≈ 90.8 µM)

CCOC(=O)C1=C(C)NC(=S)NC1c1coc2ccc(F)cc2c1=O (stereo not shown) [Compound 4f, Ethyl 4-(6-fluoro-4-oxo-4H-chromen-3-yl)-6-methyl-2-thioxo-1,2,3,4-tetrahydropyrimidine-5-carboxylate]
MIC [1]: 44 µg/mL (≈ 121 µM) | MIC [2, 12]: 72 µg/mL (≈ 199 µM) | MIC ([3]; Escherichia coli, 1411, 24 h): 48 µg/mL (≈ 132 µM) | melting point: 228 to 230 °C | pIC50 [4]: 3.55 | MIC [5]: 46 µg/mL (≈ 127 µM) | MIC [6]: 34 µg/mL (≈ 93.8 µM) | MIC [7]: 34 µg/mL (≈ 93.8 µM) | MIC [8]: 48 µg/mL (≈ 132 µM) | MIC [9]: 30 µg/mL (≈ 82.8 µM) | MIC [10]: 44 µg/mL (≈ 121 µM) | MIC [11]: 55 µg/mL (≈ 152 µM)

CC1=C(C(=O)NN)C(c2coc3ccccc3c2=O)NC(=O)N1 (stereo not shown) [Compound 6a, 6-Methyl-2-oxo-4-(4-oxo-4H-chromen-3-yl)-1,2,3,4-tetrahydropyrimidine-5-carbohydrazide]
MIC [1]: 32 µg/mL (≈ 102 µM) | MIC [2, 12]: 66 µg/mL (≈ 210 µM) | MIC ([3]; Escherichia coli, 1411, 24 h): 34 µg/mL (≈ 108 µM) | melting point: 256 to 258 °C | pIC50 [4]: 3.90 | MIC [5]: 78 µg/mL (≈ 248 µM) | MIC [6]: 55 µg/mL (≈ 175 µM) | MIC [7]: 68 µg/mL (≈ 216 µM) | MIC [8]: 76 µg/mL (≈ 242 µM) | MIC [9]: 58 µg/mL (≈ 185 µM) | MIC [10]: 68 µg/mL (≈ 216 µM) | MIC [11]: 60 µg/mL (≈ 191 µM)

N[C@@H]1CON=C1O [D-Cycloserine, reference compound]
MIC [1]: 16 µg/mL (≈ 157 µM) | MIC ([2]; NCIM2901, S. aureus NCIM-2901, 24 h, average of three readings, read-out: MIC100): 32 µg/mL (≈ 313 µM) | MIC ([3]; Escherichia coli, E. coli 1411, 24 h, average of three readings): 16 µg/mL (≈ 157 µM) | pIC50 [4]: 3.56
